This series can be described thus: Solubility of racemic and enantiopure hydroxy cineol in different solvents at room temperature. Conditions: for Solubility: room temperature.

Values after ≈ are worked out from the molar mass of the structure shown.

Protocol: The solubility of racemic hydroxy cineol and enantiopure hydroxy cineol was checked at room temperature in solvents namely, petroleum ether, n-pentane, n-hexane, n-heptane, iso-octane, cyclohexane and toluene.
The solubility at room temperature was determined by adding under stirring small portions of the substance to 5 mL of solvent until it reached saturation and formation of a no more soluble sediment was observed.

As to `CC(C)C12CCC(C)(O1)C(O)C2` (racemic) [Racemate, hydroxy cineol], the Solubility reads like this: (cyclohexane) 380 mg/mL (≈ 2230 mM); (iso-octane) 75 mg/mL (≈ 441 mM); (n-heptane) 80 mg/mL (≈ 470 mM); (n-hexane) 100 mg/mL (≈ 587 mM); (n-pentane) 150 mg/mL (≈ 881 mM); (petroleum ether) 120 mg/mL (≈ 705 mM). The same compound displayed a Solubility (toluene) of 800 mg/mL (≈ 4700 mM). For the same compound, the “solubility of racemate relative to the optical pure hydroxy-cineol” value (n-heptane) came out at 8 fold. In addition, the “solubility of racemic compound compared with optical pure material” value (non-polar solvents) is reported as “much better soluble”.

The record behind these values is patent US11866443B2, “Method for separating optically active hydroxy cineole derivatives” (BASF Agro B.V., priority 2017, dated 2024).
